ChEMBL document CHEMBL1145791, “Synthesis and biological activity of various derivatives of a novel class of potent, selective, and orally active prostaglandin D2 receptor antagonists. 1. Bicyclo[2.2.1]heptane derivatives” (J Med Chem, 2003)

Key:
[1] = molecular target: T1, Prostaglandin D2 receptor (Homo sapiens, UniProt Q13258); assay: In vitro inhibition of [3H]- PGD-2 radioligand binding to prostaglandin D2 receptor on human platelet membrane
T1 sequence (Q13258 whole entry): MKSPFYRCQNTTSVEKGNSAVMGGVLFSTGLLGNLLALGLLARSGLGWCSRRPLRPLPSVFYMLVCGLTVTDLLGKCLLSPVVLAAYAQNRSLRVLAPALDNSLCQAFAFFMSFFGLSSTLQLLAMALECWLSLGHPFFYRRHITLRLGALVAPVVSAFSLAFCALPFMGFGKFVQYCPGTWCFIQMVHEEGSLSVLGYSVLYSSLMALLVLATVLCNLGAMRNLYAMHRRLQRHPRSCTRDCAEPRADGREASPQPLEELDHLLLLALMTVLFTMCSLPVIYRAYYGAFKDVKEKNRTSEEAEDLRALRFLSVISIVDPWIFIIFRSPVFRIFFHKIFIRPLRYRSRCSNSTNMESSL

[2] = molecular target: T1, Prostaglandin D2 receptor; assay: In vitro inhibition of cAMP formation evoked by prostaglandin D2 receptor in human platelets; format: functional
[3] = test system: Cavia porcellus; assay: In vivo inhibition of antigen induced increase in intranasal pressure in actively sensitized guinea pig after dose of 10 mg/kg; format: functional; details: for inhibition in vivo at 10 mg/kg: Cavia porcellus
[4] = test system: Cavia porcellus; assay: Inhibition of increase in specific airway resistance by antigen inhalation in conscious guinea pig at a dose of 10 mg/kg administered perorally 1 hr before challenge in asthma model; format: functional; details: route oral
[5] = test system: Cavia porcellus; assay: In vivo inhibition of antigen induced increase in intranasal pressure in actively sensitized guinea pig after an intravenous dose of 1 mg/kg; format: functional

SMILES	IC50 [1] [nM]	IC50 [2] [nM]	other results
O=C(O)CCC/C=C\C[C@@H]1[C@H]2CC[C@H](C2)[C@H]1NS(=O)(=O)c1ccc(/C=C\c2ccccc2)cc1	200	180	
CS(=O)(=O)NC(=O)CCC/C=C\C[C@@H]1[C@H]2CC[C@H](C2)[C@H]1NS(=O)(=O)c1ccc2oc3ccccc3c2c1	42	32	
O=C(O)CCC/C=C\C[C@@H]1[C@H]2CC[C@H](C2)[C@H]1NS(=O)(=O)c1ccc2c(c1)Cc1ccccc1-2		> 1000	
O=C(O)CCC/C=C\C[C@@H]1[C@H]2CC[C@H](C2)[C@H]1NS(=O)(=O)c1ccc(C(=O)Nc2ccccc2)cc1	1100	86	
O=C(O)CCC/C=C\C[C@@H]1[C@H]2CC[C@H](C2)[C@H]1NS(=O)(=O)c1ccc2oc3ccccc3c2c1			inhibition in vivo at 10 mg/kg [3]: 75%
CC(C)(C)c1ccc(S(=O)(=O)N[C@@H]2[C@@H]3CC[C@@H](C3)[C@H]2C/C=C\CCCC(=O)O)cc1	> 10000	720	
COc1cc2c(cc1S(=O)(=O)N[C@@H]1[C@@H]3CC[C@@H](C3)[C@H]1C/C=C\CCCC(=O)O)oc1ccccc12	24	52	inhibition in vivo at 10 mg/kg [4]: 42%; Inhibition ([3]; 10 mg/kg): 82%; inhibition in vivo at 10 mg/kg [3]: 81%
COc1cc2c(cc1S(=O)(=O)N[C@@H]1[C@@H]3CC[C@@H](C3)[C@H]1C/C=C\CCC(C)(C)C(=O)O)oc1ccccc12	57	320	
O=C(O)CCC/C=C\C[C@@H]1[C@H]2CC[C@H](C2)[C@H]1NS(=O)(=O)c1ccc(-c2cc3ccccc3[nH]2)cc1	190	210	
O=C(O)CCC/C=C\C[C@@H]1[C@H]2CC[C@H](C2)[C@H]1NS(=O)(=O)c1ccc(-c2ccccc2)s1	580	220	
O=C(O)CCC/C=C\C[C@@H]1[C@H]2CC[C@H](C2)[C@H]1NS(=O)(=O)c1ccc2oc3ccc(O)cc3c2c1	200	250	
O=C(O)CCC/C=C\C[C@@H]1[C@H]2CC[C@H](C2)[C@H]1NS(=O)(=O)c1ccc(CCc2ccccc2)cc1	550	260	
O=C(O)CCC/C=C\C[C@@H]1[C@H]2CC[C@H](C2)[C@H]1NS(=O)(=O)c1ccc(-c2cccs2)s1	410	200	
CC(C)(CC/C=C\C[C@@H]1[C@H]2CC[C@H](C2)[C@H]1NS(=O)(=O)c1ccc2oc3ccccc3c2c1)C(=O)O	180	320	
COc1ccc(-c2cc3ccc(S(=O)(=O)N[C@@H]4[C@@H]5CC[C@@H](C5)[C@H]4C/C=C\CCCC(=O)O)cc3[nH]2)cc1	15	45	inhibition in vivo at 1 mg/kg [5]: 40%
O=C(O)CCC/C=C\C[C@@H]1[C@H]2CC[C@H](C2)[C@H]1NS(=O)(=O)c1ccc(-c2ccc(C(F)(F)F)cc2)cc1	660	350	
O=C(O)CCCCC(=O)C[C@@H]1[C@H]2CC[C@H](C2)[C@H]1NS(=O)(=O)c1ccc2oc3ccccc3c2c1	680	19	
O=C(O)CCC/C=C\C[C@@H]1[C@H]2CC[C@H](C2)[C@H]1NS(=O)(=O)c1ccc2cc(-c3ccccc3)[nH]c2c1		71	
COc1cc2c(cc1S(=O)(=O)N[C@@H]1[C@@H]3CC[C@@H](C3)[C@H]1CC(=O)CCCCC(=O)O)oc1ccccc12	960	33	
O=C(O)CCC/C=C\C[C@@H]1[C@H]2CC[C@H](C2)[C@H]1NS(=O)(=O)c1ccc2[nH]c3ccccc3c2c1	22	22	inhibition in vivo at 1 mg/kg [5]: -9%
O=C(O)CCC/C=C\C[C@@H]1[C@H]2CC[C@H](C2)[C@H]1NS(=O)(=O)c1ccc(Cc2ccccc2)cc1	5200	650	
O=C(O)CCC/C=C\C[C@@H]1[C@H]2CC[C@H](C2)[C@H]1NS(=O)(=O)c1ccc2sc3ccccc3c2c1	64	180	inhibition in vivo at 1 mg/kg [5]: 31%
O=C(O)CCC/C=C\C[C@@H]1[C@H]2CC[C@H](C2)[C@H]1NS(=O)(=O)c1ccc(-c2nnnn2-c2ccccc2)cc1	62	380	
O=C(O)CCC/C=C\C[C@@H]1[C@H]2CC[C@H](C2)[C@H]1NS(=O)(=O)c1ccc2oc3cc([N+](=O)[O-])ccc3c2c1	550	57	

SMILES	IC50 [1] [nM]	IC50 [2] [nM]	other results
COc1ccc(-c2ccc(S(=O)(=O)N[C@@H]3[C@@H]4CC[C@@H](C4)[C@H]3C/C=C\CCCC(=O)O)cc2)cc1	450	200	
COc1ccc2oc3ccc(S(=O)(=O)N[C@@H]4[C@@H]5CC[C@@H](C5)[C@H]4C/C=C\CCCC(=O)O)cc3c2c1	34	330	
O=C(O)CCC/C=C\C[C@@H]1[C@H]2CC[C@H](C2)[C@H]1NS(=O)(=O)c1ccc(/N=N/c2ccccc2)cc1	25		
O=C(O)CCC/C=C\C[C@@H]1[C@H]2CC[C@H](C2)[C@H]1NS(=O)(=O)c1ccc2cc(-c3ccc(O)cc3)[nH]c2c1	18	25	inhibition in vivo at 1 mg/kg [5]: 42%
O=C(O)CCCCCC[C@@H]1[C@H]2CC[C@H](C2)[C@H]1NS(=O)(=O)c1ccc2oc3ccccc3c2c1	120	430	
O=C(O)CCC/C=C\C[C@@H]1[C@H]2CC[C@H](C2)[C@H]1NS(=O)(=O)c1cc2oc3ccccc3c2cc1O	190	180	
O=C(O)CCC/C=C\C[C@@H]1[C@H]2CC[C@H](C2)[C@H]1NS(=O)(=O)c1ccc(Oc2ccccc2)cc1	680	570	
Cn1c(-c2ccccc2)cc2ccc(S(=O)(=O)N[C@@H]3[C@@H]4CC[C@@H](C4)[C@H]3C/C=C\CCCC(=O)O)cc21	380	190	
COc1ccc(S(=O)(=O)N[C@@H]2[C@@H]3CC[C@@H](C3)[C@H]2C/C=C\CCCC(=O)O)cc1	> 10000	390	
O=C(O)CCC/C=C\C[C@@H]1[C@H]2CC[C@H](C2)[C@H]1NS(=O)(=O)c1ccc2c(c1)oc1ccccc12	22	160	
O=C(O)CCC/C=C\C[C@@H]1[C@H]2CC[C@H](C2)[C@H]1NS(=O)(=O)c1ccccc1Br	5300	340	
CCOc1cc2c(cc1S(=O)(=O)N[C@@H]1[C@@H]3CC[C@@H](C3)[C@H]1C/C=C\CCCC(=O)O)oc1ccccc12	32	34	inhibition in vivo at 10 mg/kg [3]: 53%
O=C(O)CCC/C=C\C[C@@H]1[C@H]2CC[C@H](C2)[C@H]1NS(=O)(=O)c1ccc(/C=C/c2ccccc2)s1	90	100	
Cc1cc(C)c(S(=O)(=O)N[C@@H]2[C@@H]3CC[C@@H](C3)[C@H]2C/C=C\CCCC(=O)O)c(C)c1	5400	130	
O=C(O)CCC/C=C\C[C@@H]1[C@H]2CC[C@H](C2)[C@H]1NS(=O)(=O)Cc1ccc(-c2ccccc2)cc1	8600	> 1000	
O=C(O)CCC/C=C\C[C@@H]1[C@H]2CC[C@H](C2)[C@H]1NS(=O)(=O)c1ccc(NC(=O)c2ccccc2)cc1	6000	120	
COc1ccc(S(=O)(=O)N[C@@H]2[C@@H]3CC[C@@H](C3)[C@H]2C/C=C\CCCC(=O)O)cc1[N+](=O)[O-]	5400	280	
CN(C)c1ccc2c(c1)oc1ccc(S(=O)(=O)N[C@@H]3[C@@H]4CC[C@@H](C4)[C@H]3C/C=C\CCCC(=O)O)cc12	36	170	
O=C(O)CCC/C=C\C[C@@H]1[C@H]2CC[C@H](C2)[C@H]1NS(=O)(=O)c1ccc(C#Cc2ccccc2)cc1	8.5	210	
O=C(O)CCC/C=C\C[C@@H]1[C@H]2CC[C@H](C2)[C@H]1NS(=O)(=O)c1ccc(/C=C/c2ccccc2)cc1	100	180	
O=C(O)CCC/C=C\C[C@@H]1[C@H]2CC[C@H](C2)[C@H]1NS(=O)(=O)c1ccc(Nc2ccccc2)cc1	330	160	
O=C(O)CCC/C=C\C[C@@H]1[C@H]2CC[C@H](C2)[C@H]1NS(=O)(=O)c1ccccc1-c1ccccc1	8600		
O=C(O)CCC/C=C\C[C@@H]1[C@H]2CC[C@H](C2)[C@H]1NS(=O)(=O)c1cccc(-c2ccccc2)c1	670	280	
